From patent US6737383B1, “Herbicidal oxadiazolidines” (priority 1999, dated 2004)

Experiments:
Alexandergrass = test: Test D Alexandergrass; assay type: in vivo, Brachiaria plantaginea; conditions: Postemergence, 0 to 100 scale
bermuda-grass = test: Test D bermudagrass; assay type: in vivo, Cynodon dactylon; conditions: Postemergence, 0 to 100 scale
common pursiane = test: Test D common purslane; assay type: in vivo, Portulaca oleracea; conditions: Postemergence, 0 to 100 scale
common groundsel = test: Test D common groundsel; assay type: in vivo, Senecio vulgaris; conditions: Postemergence, 0 to 100 scale
guineagrass = test: Test D guineagrass; assay type: in vivo, Panicum maximum; conditions: Postemergence, 0 to 100 scale
itchgrass = test: Test D itchgrass; assay type: in vivo, Rottboellia exaltata; conditions: Postemergence, 0 to 100 scale
pitted morningglory = test: Test D pitted morningglory; assay type: in vivo, Ipomoea lacunosa; conditions: Postemergence, 0 to 100 scale
purple nutsedge = test: Test D purple nutsedge; assay type: in vivo, Cyperus rotundus; conditions: Postemergence, 0 to 100 scale
sandbur = test: Test D sandbur; assay type: in vivo, Cenchrus echinatus; conditions: Postemergence, 0 to 100 scale
surinam grass = test: Test D surinam grass; assay type: in vivo, Brachiaria decumbens; conditions: Postemergence, 0 to 100 scale
tall mallow = test: Test D tall mallow; assay type: in vivo, Malva sylvestris; conditions: Postemergence, 0 to 100 scale
Green foxtail [1] = test: Test D green foxtail; assay type: in vivo; conditions: Rate 250 g/ha; Postemergence; 0 to 100 scale
Green foxtail [2] = test: Test D green foxtail; assay type: in vivo; conditions: Postemergence, 0 to 100 scale, 0 no injury, 100 complete control
Green foxtail [3] = test: Test D green foxtail; assay type: in vivo; conditions: Rate 250 g/ha; Postemergence; 0 to 100 scale; remark: listed apart in the source
[4] = Rate 16 g/ha, 0 no injury, 100 complete control
[5] = Rate 32 g/ha, 0 no injury, 100 complete control
[6] = Rate 64 g/ha, 0 no injury, 100 complete control
[7] = Rate 125 g/ha, 0 no injury, 100 complete control

COCC(C)n1c(=O)on(C(=O)N(c2ccc(F)cc2F)C(C)C)c1=O (stereo not shown) [Compound 357]
Plant response rating, Alexandergrass (Alexandergrass; [4]): 0
Plant response rating, Alexandergrass (Alexandergrass; [5]): 20
Plant response rating, Alexandergrass (Alexandergrass; [6]): 100
Plant response rating, Alexandergrass (Alexandergrass; [7]): 100
Plant response rating, Alexandergrass (Alexandergrass; Rate 250 g/ha): 100
Plant response rating, Bermudagrass (bermuda-grass; [4]): 90
Plant response rating, Bermudagrass (bermuda-grass; [5]): 100
Plant response rating, Bermudagrass (bermuda-grass; [6]): 100
Plant response rating, Bermudagrass (bermuda-grass; [7]): 100
Plant response rating, Bermudagrass (bermuda-grass; Rate 250 g/ha): 100
Plant response rating, C. purslane (common pursiane; [4]): 0
Plant response rating, C. purslane (common pursiane; [5]): 0
Plant response rating, C. purslane (common pursiane; [6]): 0
Plant response rating, C. purslane (common pursiane; [7]): 0
Plant response rating, C. purslane (common pursiane; Rate 250 g/ha): 0
Plant response rating, Com. groundsel (common groundsel; [5]): 40
Plant response rating, Com. groundsel (common groundsel; [6]): 100
Plant response rating, Com. groundsel (common groundsel; [7]): 100
Plant response rating, Com. groundsel (common groundsel; Rate 250 g/ha): 100
Plant response rating, Guineagrass (guineagrass; [4]): 0
Plant response rating, Guineagrass (guineagrass; [5]): 0
Guineagrass plant response rating (guineagrass; [6]): 60
Plant response rating, Guineagrass (guineagrass; [6]): 20
Plant response rating, Guineagrass (guineagrass; [7]): 70
Plant response rating, Guineagrass (guineagrass; Rate 250 g/ha): 100
Plant response rating, Itchgrass (itchgrass; [4]): 0
Plant response rating, Itchgrass (itchgrass; [5]): 0
Plant response rating, Itchgrass (itchgrass; [6]): 0
Plant response rating, Itchgrass (itchgrass; [7]): 30
Plant response rating, Itchgrass (itchgrass; Rate 250 g/ha): 50
Plant response rating, P. morninglory (pitted morningglory; [4]): 0
Plant response rating, P. morninglory (pitted morningglory; [5]): 0
Plant response rating, P. morninglory (pitted morningglory; [6]): 0
Plant response rating, P. morninglory (pitted morningglory; [7]): 0
Plant response rating, P. morninglory (pitted morningglory; Rate 250 g/ha): 0
Plant response rating, Purple nutsedge (purple nutsedge; [4]): 0
Plant response rating, Purple nutsedge (purple nutsedge; [5]): 0
Purple nutsedge plant response rating (purple nutsedge; [6]): 0
Purple nutsedge plant response rating (purple nutsedge; [7]): 0
Plant response rating, Purple nutsedge (purple nutsedge; Rate 250 g/ha): 50
Plant response rating, Sandbur (sandbur; [4]): 0
Plant response rating, Sandbur (sandbur; [5]): 0
Sandbur plant response rating (sandbur; [6]): 0
Sandbur plant response rating (sandbur; [7]): 0
Plant response rating, Sandbur (sandbur; Rate 250 g/ha): 100
Plant response rating, Surinam grass (surinam grass; [4]): 0
Plant response rating, Surinam grass (surinam grass; [5]): 20
Surinam grass plant response rating (surinam grass; [6]): 80
Surinam grass plant response rating (surinam grass; [7]): 100
Plant response rating, Surinam grass (surinam grass; Rate 250 g/ha): 100
Plant response rating, Tall Mallow (tall mallow; [4]): 10
Plant response rating, Tall Mallow (tall mallow; [5]): 10
Tall Mallow plant response rating (tall mallow; [6]): 20
Tall Mallow plant response rating (tall mallow; [7]): 50
Plant response rating, Tall Mallow (tall mallow; Rate 250 g/ha): 100
Plant response rating, Green foxtail (Green foxtail [1]): 100
Plant response rating, Green foxtail (Green foxtail [2]; Rate 16 g/ha): 10
Plant response rating, Green foxtail (Green foxtail [2]; Rate 32 g/ha): 30
Plant response rating, Green foxtail (Green foxtail [3]): 100

CCC(CC)n1c(=O)on(C(=O)N(c2ccc(F)cc2)C(C)C)c1=O [Compound 358]
Plant response rating, Alexandergrass (Alexandergrass; [4]): 0
Plant response rating, Alexandergrass (Alexandergrass; [5]): 0
Plant response rating, Alexandergrass (Alexandergrass; [6]): 100
Plant response rating, Alexandergrass (Alexandergrass; [7]): 90
Plant response rating, Alexandergrass (Alexandergrass; Rate 250 g/ha): 100
Plant response rating, Bermudagrass (bermuda-grass; [4]): 0
Plant response rating, Bermudagrass (bermuda-grass; [5]): 90
Plant response rating, Bermudagrass (bermuda-grass; [6]): 100
Plant response rating, Bermudagrass (bermuda-grass; [7]): 100
Plant response rating, Bermudagrass (bermuda-grass; Rate 250 g/ha): 100
Plant response rating, C. purslane (common pursiane; [4]): 0
Plant response rating, C. purslane (common pursiane; [5]): 0
Plant response rating, C. purslane (common pursiane; [6]): 0
Plant response rating, C. purslane (common pursiane; [7]): 0
Plant response rating, C. purslane (common pursiane; Rate 250 g/ha): 0
Plant response rating, Com. groundsel (common groundsel; [4]): 0
Plant response rating, Com. groundsel (common groundsel; [5]): 0
Plant response rating, Com. groundsel (common groundsel; [6]): 0
Plant response rating, Com. groundsel (common groundsel; Rate 250 g/ha): 40
Plant response rating, Guineagrass (guineagrass; [4]): 0
Plant response rating, Guineagrass (guineagrass; [5]): 0
Guineagrass plant response rating (guineagrass; [6]): 20
Plant response rating, Guineagrass (guineagrass; [6]): 100
Plant response rating, Guineagrass (guineagrass; [7]): 100
Plant response rating, Guineagrass (guineagrass; Rate 250 g/ha): 100
Plant response rating, Itchgrass (itchgrass; [4]): 0
Plant response rating, Itchgrass (itchgrass; [5]): 0
Plant response rating, Itchgrass (itchgrass; [6]): 0
Plant response rating, Itchgrass (itchgrass; [7]): 0
Plant response rating, Itchgrass (itchgrass; Rate 250 g/ha): 100
Plant response rating, P. morninglory (pitted morningglory; [4]): 0
Plant response rating, P. morninglory (pitted morningglory; [5]): 0
Plant response rating, P. morninglory (pitted morningglory; [6]): 0
Plant response rating, P. morninglory (pitted morningglory; [7]): 0
Plant response rating, P. morninglory (pitted morningglory; Rate 250 g/ha): 0
Plant response rating, Purple nutsedge (purple nutsedge; [4]): 0
Plant response rating, Purple nutsedge (purple nutsedge; [5]): 0
Purple nutsedge plant response rating (purple nutsedge; [6]): 0
Purple nutsedge plant response rating (purple nutsedge; [7]): 0
Plant response rating, Purple nutsedge (purple nutsedge; Rate 250 g/ha): 10
Plant response rating, Sandbur (sandbur; [4]): 0
Plant response rating, Sandbur (sandbur; [5]): 20
Sandbur plant response rating (sandbur; [6]): 100
Sandbur plant response rating (sandbur; [7]): 100
Plant response rating, Sandbur (sandbur; Rate 250 g/ha): 90
Plant response rating, Surinam grass (surinam grass; [4]): 0
Plant response rating, Surinam grass (surinam grass; [5]): 0
Surinam grass plant response rating (surinam grass; [6]): 0
Surinam grass plant response rating (surinam grass; [7]): 50
Plant response rating, Surinam grass (surinam grass; Rate 250 g/ha): 50
Plant response rating, Tall Mallow (tall mallow; [4]): 0
Plant response rating, Tall Mallow (tall mallow; [5]): 30
Tall Mallow plant response rating (tall mallow; [6]): 50
Tall Mallow plant response rating (tall mallow; [7]): 70
Plant response rating, Tall Mallow (tall mallow; Rate 250 g/ha): 80
Plant response rating, Green foxtail (Green foxtail [1]): 100
Plant response rating, Green foxtail (Green foxtail [2]; Rate 16 g/ha): 0
Plant response rating, Green foxtail (Green foxtail [2]; Rate 32 g/ha): 30
Plant response rating, Green foxtail (Green foxtail [3]): 100
